Assay results reported in US20260000713A1, “MICROBIAL M[…] INTESTINAL INFLAMMATION” (CEDARS-SINAI MEDICAL CENTER, priority 2021, published 2026).
Read-outs that look alike come from different tables or passages of the source.

Assays:
[1] = test system: GF WT mice or GF Tl1a-tg mice; conditions: 200 mM sodium acetate in drinking water for 3 months, vs regular drinking water
Experimental: (§1) Histology Scoring: Ileal tissues were collected 1-2 cm long near cecum, paraffin-embedded and stained with H&E for histological analysis. Severity of ileal inflammation was evaluated in a blinded manner according to previously described criteria by two trained animal pathologists. Spontaneous ileitis was evaluated by scoring the degree of inflammation, extent of involvement, crypt damage and villus changes as described. GF mice were evaluated using a scoring criterion.
The impact of acetate on the development of ileitis was examined.
(§2) Acetate supplementation: Sodium acetate (Sigma Aldrich) was added at 200 mM to drinking water. SPF mice were supplemented with acetate water for 2 or 4 months starting at 2 months of age. GF mice were supplemented with acetate water for 3 months starting at 2-3 months of age.
12-week-old littermate GF WT mice or GF Tl1a-tg mice were treated with 200 mM of sodium acetate in drinking water (ad libitum) for 3 months. […] The number of mice used was 12 to 22 mice per group.

IFN-γ = conditions: MLN cells restimulated with anti-CD3ε and anti-CD28 for 3 days
Experimental: as §2
Isolation of mesenteric lymph nodes mononuclear cells, restimulation, and ELISA: Mesenteric lymph nodes (MLN) were removed from the peritoneal cavity and mesenteric fat was removed. Single cell suspension was prepared by crushing MLN between two glass slides and passing the cell suspension through a 40 μm cell strainer. Single-cell suspensions were restimulated with anti-CD3ε (0.5 μg/ml) and anti-CD28 (1 μg/ml) antibodies for 3 days. Cytokine levels in supernatants were measured by ELISA. Cytokine concentration in culture supernatants was assayed by ELISA for murine IFN-γ (eBioscience).
(§3) The groups depicted include WT H2O, WT Ac (acetate), Tl1a-tg H2O, and Tl1a-tg Ac. Around 12-19 mice were used in each group. […] Around 6 mice were used per group.

Paneth cells = conditions: acetate treated GF WT or Tl1a-tg mice
Experimental: as §2, §3

[2] = test system: SPF WT mice or tl1a-tg mice
Experimental: as §1, §2
In a second set of experiments, SPF WT mice or tl1a-tg mice were treated with acetate in drinking water for 2 or 4 months starting at 2 months of age. […] 9 to 23 mice were used per group.

[3] = test system: Germ-free IBD susceptible mice; conditions: Germ-free Tl1a-Tg mice receiving acetate vs standard water
Experimental: as §2

CC(=O)[O-].[Na+] [acetate, Sodium acetate]
ileal inflammation (ileum histoscore) ([1]; GF Tl1a-tg mice): developed ileal inflammation | ileal inflammation (ileum histoscore) ([1]; GF WT mice): developed ileal inflammation | IFN-γ secretion by MLN (IFN-γ; acetate treated GF Tl1a-tg mice): significantly elevated IFN-γ secretion | IFN-γ secretion by MLN (IFN-γ; acetate treated GF WT mice): significantly elevated IFN-γ secretion | Paneth cell granule maturation (percentage of Paneth cells with D0, D1, D2, D3 features) (Paneth cells): did not result in normal Paneth cell granule maturation | ileitis (histoscore) ([2]; SPF Tl1a-tg mice, acetate in drinking water for 2 months starting at 2 months of age, vs age-matched water controls): led to ileitis | ileal inflammation (histoscore) ([2]; SPF WT mice, acetate in drinking water for 4 months starting at 2 months of age, vs water controls): developed ileal inflammation | cecal collagen deposition (fibrosis) [3]: increase in cecal collagen deposition
